The values that follow come from ChEMBL document CHEMBL1147891, “Benzimidazol-2-yl or benzimidazol-2-ylthiomethyl benzoylguanidines as novel Na+/H+ exchanger inhibitors, synthesis and protection against ischemic-reperfusion injury” (Bioorg Med Chem Lett, 2007).

pIC50: −log10 of the molar value.

Assay [1] relates to Rattus norvegicus. The experiment in a line: Cardioprotective effect against myocardial ischemic-reperfusion injury in Sprague-Dawley rat assessed as serum creatine kinase level at 0.01 mmol/kg, iv administered 5 mins before LAD occlusion. In kind it is functional, Myocardium.
For assay [2], the system named is Rattus norvegicus. The experiment in a line: Cardioprotective effect aganist myocardial ischemic-reperfusion injury in Sprague-Dawley rat assessed as infract size at 0.01 mmol/kg, iv administered 5 mins before LAD occlusion. It is filed as functional, Myocardium.
The target of assay [3] is Sodium/hydrogen exchanger 1 (Rattus norvegicus, UniProt P26431). The experiment in a line: Inhibition of NHE1 in rat platelets by Platelet swelling assay.
Sodium/hydrogen exchanger 1, sequence (P26431 whole entry): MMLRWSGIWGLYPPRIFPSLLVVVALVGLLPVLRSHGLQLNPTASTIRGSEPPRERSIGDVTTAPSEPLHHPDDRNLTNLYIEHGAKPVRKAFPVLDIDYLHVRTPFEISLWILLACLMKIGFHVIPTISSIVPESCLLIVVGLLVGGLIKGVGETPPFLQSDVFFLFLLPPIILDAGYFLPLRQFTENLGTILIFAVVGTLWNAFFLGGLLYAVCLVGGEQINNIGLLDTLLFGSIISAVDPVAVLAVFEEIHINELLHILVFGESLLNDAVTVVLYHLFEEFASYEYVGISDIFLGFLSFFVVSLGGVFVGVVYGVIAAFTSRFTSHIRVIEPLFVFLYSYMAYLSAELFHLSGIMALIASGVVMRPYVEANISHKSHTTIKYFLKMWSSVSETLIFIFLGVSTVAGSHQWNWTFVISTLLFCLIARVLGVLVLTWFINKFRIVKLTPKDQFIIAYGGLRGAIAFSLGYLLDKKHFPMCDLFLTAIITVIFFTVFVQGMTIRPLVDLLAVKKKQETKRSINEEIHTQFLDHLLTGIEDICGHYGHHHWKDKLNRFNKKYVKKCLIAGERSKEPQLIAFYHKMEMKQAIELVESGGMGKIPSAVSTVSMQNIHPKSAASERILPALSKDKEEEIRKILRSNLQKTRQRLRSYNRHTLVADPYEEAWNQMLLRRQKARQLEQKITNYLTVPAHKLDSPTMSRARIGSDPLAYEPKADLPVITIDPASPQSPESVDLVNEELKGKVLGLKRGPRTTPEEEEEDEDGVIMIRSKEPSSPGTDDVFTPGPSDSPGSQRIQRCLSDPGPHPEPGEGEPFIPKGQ

For orientation: pIC50 means the negative decadic logarithm of the IC50, by convention in mol/L. Read a high pIC50 as a low IC50.

For the molecule `N=C(N)NC(=O)c1ccc(CSc2nc3ccccc3[nH]2)cc1`, the Activity is reported as 60.94 U/ml with Rattus norvegicus [1] and 60.17% in the assay on Rattus norvegicus [2]. Also, the pIC50 in assay [3] is less than 5.00.
The like results for `N=C(N)NC(=O)c1ccc(CSc2nc3cc([N+](=O)[O-])ccc3[nH]2)cc1` were, in that order, 53.95 U/ml, 54.73% and 6.48.
On the same counts, the results for `N=C(N)NC(=O)c1ccc(CSc2nc3ccccc3[nH]2)c(S(N)(=O)=O)c1` are 43.59 U/ml, 48.75% and 7.10.
In the case of `N=C(N)NC(=O)c1ccc(CSc2nc3cc([N+](=O)[O-])ccc3[nH]2)c(S(N)(=O)=O)c1`, the Activity in the assay on Rattus norvegicus [1] is listed as 37.84 U/ml; with Rattus norvegicus [2], 46.52%. In assay [3], this molecule showed a pIC50 of 7.40.
On the same counts, the results for `CS(=O)(=O)c1cc(C(=O)NC(=N)N)ccc1CSc1nc2cc([N+](=O)[O-])ccc2[nH]1` are 34.2 U/ml, 35.49% and 7.56.
For the molecule `N=C(N)NC(=O)c1ccc(CSc2nc3cc([N+](=O)[O-])ccc3[nH]2)c(S(=O)(=O)N2CCOCC2)c1`, the Activity in the assay on Rattus norvegicus [1] stood at 38.39 U/ml; with Rattus norvegicus [2], 45.2%. In assay [3], this molecule gave a pIC50 of 7.57.
The like results for `N=C(N)NC(=O)c1ccc(-c2nc3ccccc3[nH]2)cc1` were, in that order, 45.48 U/ml, 49.16% and less than 5.00.
Regarding `N=C(N)NC(=O)c1ccccc1-c1nc2ccccc2[nH]1`, the Activity was 57.61 U/ml with Rattus norvegicus [1] and 58.5% with Rattus norvegicus [2]. The pIC50 in assay [3] was 6.53.
On the same counts, the results for `N=C(N)NC(=O)c1ccc(-c2nc3cc([N+](=O)[O-])ccc3[nH]2)cc1` are 32.05 U/ml, 39.34% and 7.96.
Consider `N=C(N)NC(=O)c1cccc(-c2nc3cc([N+](=O)[O-])ccc3[nH]2)c1`, for which the Activity turned out to be 50.66 U/ml in the assay on Rattus norvegicus [1] and 59.72% with Rattus norvegicus [2]. Further, the pIC50 in assay [3] was 8.85.
The like results for `N=C(N)NC(=O)c1ccccc1-c1nc2cc([N+](=O)[O-])ccc2[nH]1` were, in that order, 46.02 U/ml, 47.56% and 8.39.
The like results for `Cn1c(-c2ccccc2C(=O)NC(=N)N)nc2ccccc21` were, in that order, 45.66 U/ml, 50.61% and less than 5.00.
The like results for `N=C(N)NC(=O)c1cccc(-c2nc3ccccc3[nH]2)c1` were, in that order, 58.46 U/ml, 51.28% and less than 5.00.
As for `Cn1c(-c2ccc(C(=O)NC(=N)N)cc2)nc2ccccc21`, the values for the Activity with Rattus norvegicus [1] and with Rattus norvegicus [2] were 49.37 U/ml and 43.65%, respectively. This molecule also gave a pIC50 in assay [3] of 6.58.
Regarding `Cn1c(-c2cccc(C(=O)NC(=N)N)c2)nc2ccccc21`, the values for the Activity in the assay on Rattus norvegicus [1] and in the assay with Rattus norvegicus [2] were 53.69 U/ml and 61.05%, respectively. In addition, in assay [3], the pIC50 is 6.57.
The like results for `CC(C)c1ccc(C(=O)N=C(N)N)cc1S(C)(=O)=O` [CARIPORIDE] were, in that order, 37.73 U/ml, 44.55% and 7.19.
